Data published in patent US5977144A (priority 1997, dated 1999).
Entries after “also recorded” stand apart in the source; their conditions may differ. Where a name gives a salt, the structure may show the parent alone. Read-outs that look alike come from different tables or passages of the source.

Tests used:
[1] = molecular target: alpha7 receptor (high affinity alpha-bungarotoxin binding, rat brain membranes) (Rattus norvegicus, UniProt Q05941); test: biochemical
rat alpha4beta2 receptor = rat alpha4beta2 receptor (Rattus norvegicus, UniProt P09483+P12390); test: Activation of alpha4beta2 receptors expressed in Xenopus oocytes; assay type: cell-based; conditions: for Emax: read-out: alpha4beta2 activation: response compared to maximal acetylcholine
Sequence of rat alpha4beta2 receptor (P09483 31-630): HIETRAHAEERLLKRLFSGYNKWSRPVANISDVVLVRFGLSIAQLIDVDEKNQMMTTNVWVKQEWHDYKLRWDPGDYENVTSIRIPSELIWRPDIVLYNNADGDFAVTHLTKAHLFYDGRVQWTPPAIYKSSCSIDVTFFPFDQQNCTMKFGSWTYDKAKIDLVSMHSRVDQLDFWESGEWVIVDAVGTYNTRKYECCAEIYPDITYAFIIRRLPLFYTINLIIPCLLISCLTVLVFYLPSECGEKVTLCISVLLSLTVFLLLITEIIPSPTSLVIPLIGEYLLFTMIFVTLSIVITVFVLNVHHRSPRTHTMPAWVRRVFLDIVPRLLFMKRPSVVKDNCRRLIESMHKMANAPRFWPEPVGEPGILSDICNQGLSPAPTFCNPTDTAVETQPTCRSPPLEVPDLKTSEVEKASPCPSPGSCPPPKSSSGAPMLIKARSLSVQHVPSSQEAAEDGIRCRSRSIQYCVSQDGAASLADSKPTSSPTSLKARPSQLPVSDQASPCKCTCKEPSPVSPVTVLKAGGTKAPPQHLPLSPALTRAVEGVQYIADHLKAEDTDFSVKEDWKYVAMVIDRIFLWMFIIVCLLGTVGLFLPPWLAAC
Sequence of rat alpha4beta2 receptor (P12390 25-500): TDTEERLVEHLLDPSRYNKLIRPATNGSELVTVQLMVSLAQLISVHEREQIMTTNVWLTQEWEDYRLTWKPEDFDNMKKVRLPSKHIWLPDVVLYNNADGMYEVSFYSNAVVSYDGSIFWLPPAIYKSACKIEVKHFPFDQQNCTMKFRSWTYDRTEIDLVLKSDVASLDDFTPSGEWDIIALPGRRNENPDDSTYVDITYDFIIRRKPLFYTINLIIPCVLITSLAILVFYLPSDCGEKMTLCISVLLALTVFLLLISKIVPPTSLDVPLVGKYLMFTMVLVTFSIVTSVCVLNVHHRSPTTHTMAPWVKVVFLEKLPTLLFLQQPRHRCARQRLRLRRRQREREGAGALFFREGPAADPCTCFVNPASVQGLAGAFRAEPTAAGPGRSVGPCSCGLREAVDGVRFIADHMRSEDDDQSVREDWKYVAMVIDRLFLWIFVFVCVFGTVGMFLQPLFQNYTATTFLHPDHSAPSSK
Experimental: FIG. 14A. Responses of α4β2 ACHR to 3-CA, 2-MeOCA or 4-MeOCA. Concentration-response relationships for the peak agonist activated currents of oocytes injected with RNA coding for rat α4β2 subunits. Responses are first expressed relative to the response to 10 μM ACh, applied 5 min before drug-application, then normalized to the maximum response obtainable with ACh so that a response of 1 represents full efficacy. The ratio between 10 μM ACh and maximum ACh response was determined in separate experiments.
(§1) Oocytes were prepared and recordings made as described previously (de Fiebre, et al., 1995). Frogs were anesthetized by submersion in 0.1% (3)-aminobenzoic acid ethyl ester and several lobes of the ovary surgically removed through a small incision in the abdomen wall. Oocytes were freed from the follicle cells by treatment with collagenase (in calcium-free Barth's solution: 88 mM NaCl, 1 mM KCl, 15 mM Hepes pH 7.6, 0.33 mM MgSO4, 0.1 mg/ml gentamicin sulfate) for 2 hr at room temperature and Stage 5 oocytes were isolated. Oocytes were rinsed and stored at 18° C. in Barth's saline (88 mM NaCl, 1 mM KCl, 15 mM Hepes pH 7.6, 0.3 mM Ca(NO3)2, 0.41 mM CaCl2, 0.82 mM MgSO4, 0.1 mg/ml gentamicin sulfate) before and after microinjection with RNA. Microinjection was conducted with a Drummond Scientific "Nanoject Variable" automatic injector. Oocytes were injected with a 50 nl solution of specified rat nicotinic subunit mRNA species (2-10 mg/ml; derived from the cDNA containing HIP 306 plasmid kindly provided by Dr. Jim Boulter, Salk Institute) and incubated 2-7 days at 18° C. before electrophysiological recording. electrophysiological recordings, oocytes were perfused in a Warner Instruments RC-8 recording chamber with a perfusion solution containing 115 mM NaCl, 2.5 mM KCl, 10 mM Hepes pH 7.2, 1.8 mM CaCl2 and 1 μM atropine to block muscarinic responses. Perfusion was continuous at a rate of 10 ml/min. Drags were diluted in perfusion solution and applied using a solenoid valve to switch from perfusion to drug solutions. Current responses to drug administration were studied under two electrode voltage clamp at a holding potential of -70 mV using a Dagan Corp. TEV-200 voltage clamp connected to a 386-SX IBM computer using a TL-1 DMA interface (Axon Instruments). Micropipettes were filled with 3 M KCl and had resistances of 0.5-2 MOhms. Drug responses are analyzed with PClamp software (Axon Instruments). Oocytes with resting potentials of less than -30 mV were rejected.

rat alpha7 receptor [2] = molecular target: T1, rat alpha7 receptor (Rattus norvegicus, UniProt Q05941); test: cell-based
T1 sequence (Q05941 23-502): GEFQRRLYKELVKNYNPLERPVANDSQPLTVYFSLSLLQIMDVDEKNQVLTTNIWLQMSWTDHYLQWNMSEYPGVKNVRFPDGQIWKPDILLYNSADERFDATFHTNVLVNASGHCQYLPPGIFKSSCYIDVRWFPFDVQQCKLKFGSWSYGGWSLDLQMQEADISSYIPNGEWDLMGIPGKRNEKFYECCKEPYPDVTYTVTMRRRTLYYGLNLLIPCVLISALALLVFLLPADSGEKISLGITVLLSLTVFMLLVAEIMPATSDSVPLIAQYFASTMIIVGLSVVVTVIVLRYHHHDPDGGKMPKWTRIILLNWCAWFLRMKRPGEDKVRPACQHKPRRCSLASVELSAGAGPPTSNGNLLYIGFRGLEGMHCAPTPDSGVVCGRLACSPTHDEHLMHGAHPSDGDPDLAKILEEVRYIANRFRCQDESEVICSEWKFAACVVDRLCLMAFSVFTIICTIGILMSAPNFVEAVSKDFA
Experimental: FIG. 13A. Effects of chronic injections of DMXB or nicotine on high affinity [^3 H]ACh or [^125 I]α-bungarotoxin (BTX) binding in rat neocortices. Adult male rats were injected with saline vehicle, 1 mg/kg DMXB or 0.2 mg/kg nicotine (NIC) (IP) daily for 2 weeks. At that time, neocortices were removed and assayed for high affinity [^3 H]ACh or [^125 I]α-bungarotoxin binding as described in the text. […] Responses of rat α7 ACHR to 3-CA, 2-MeOCA and 4-MeOCA. Concentration-response relationships for the peak agonist activated currents of oocytes injected with RNA coding for the rat α7 subunit. All responses were initially measured relative to the individual oocyte-response to 500 μM ACh, applied 5 min prior to drug-application. Responses were normalized relative to the maximum response obtainable with ACh so that a response of 1 represents full efficacy. The ratio of 500 μM ACh control response to ACh maximum was taken from Papke et al., 1997.
as §1

[3] = test system: rat primary neocortical neurons; assay type: cell-based
rat alpha7 receptor [4] = molecular target: T1, rat alpha7 receptor; test: cell-based; parameters: Oocytes Antagonist: unit not given here
Experimental: FIG. 13B. Effects of chronic injections of DMXB or nicotine on high affinity [^3 H]ACh or [^125 I]α-bungarotoxin (BTX) binding in rat neocortices. Adult male rats were injected with saline vehicle, 1 mg/kg DMXB or 0.2 mg/kg nicotine (NIC) (IP) daily for 2 weeks. At that time, neocortices were removed and assayed for high affinity [^3 H]ACh or [^125 I]α-bungarotoxin binding as described in the text. […] Responses of rat α7 AChR to 3-CA, 2-MeOCA and 4-MeOCA. […] All responses are expressed relative to the oocyte-response to 500 μM ACh applied 5 min prior to the experimental agonist application.
as §1
Antagonist properties subsequent to agonist activity were measured as a decrease in responsiveness to ACh applied 5 min after compound-application, normalized to ACh application instead of the anabaseine-derivative (FIG. 13A AND FIG. 13B).

PC12 cells = assay type: cell-based; conditions: 10 μM (NGF 100 ng/ml); 4 days after removal of serum and NGF; mean±SEM; * p<0.05
Experimental: PC12 cell-culture methods were modified from Greene and Tischler (1976). Cells were plated at 30-40% confluence and grown in Dulbecco's Modified Eagle Medium containing 10% heat-inactivated horse serum, 5% fetal bovine serum, 100 units/ml penicillin, 100 μg/ml streptomycin and 0.5 mM 1-glutamine. Cultures were maintained at 37° C., […] /6% CO2 and 90-92% humidity in culture plates pre-coated with poly-1lysine (10 g/L). Cultures were maintained for 7 days in serum-supplemented medium to which 100 ng/ml rat 2.5S NGF was added at day 1. On day 7, conditioned medium was replaced serum-free medium containing specified drugs. Four days later, cell density was estimated using the NIH Image program version 1.47 and number of neurite-expressing cells counted manually in blind fashion as described previously (Martin et al., 1994). A Nikon inverted microscope (100× magnification) was attached to a Mac II computer via a monochrome video camera (Cohu, Inc., San Diego, Calif.). Four random areas were counted per plate and there were 4 plates per treatment group, unless otherwise indicated. Neurites were defined as processes at least 2× the length of the perikaryon. To assess the reliability of the image analyses, a reticle was used for direct quantification of cells in the same view as the one analyzed in random samples.
PC12 cells were differentiated for 1 week with NGF. Drugs were administered for the 4 day interval after removal of serum and NGF. Neuites were counted and expressed as the mean±SEM of at least 3 plates/group.

rat = test: Focal ischemia infarct size in rats; assay type: in vivo; conditions: 0.5 mg/kg IP mecamylamine with DMXB
Experimental: FIG. 3. […] Rats received a 30 minute ischemia attack through tying of their common carotid; the amount of cell death (proportional to Infarct Size) was determined 24 hours later. Some animals received the benzylidene-anabaseine compound DMXB (1 mg/kg IP, salt weight) 1 hour before ligation, or the nicotinic antagonist mecamylamine (0.5 mg/kg IP), or both mecamylamine and DMXB, or DMXB 5 minutes after the ligation.
Male Sprague Dawley albino male rats (250-300 g) were anesthetized with a subcutaneous injection of ketamine, xylazine, and acepromazine (3:3:1 mixture, 0.7 cc/kg). Atropine (0.4 mg/kg IP) was injected several min prior to dissection of the carotid artery from the vagus. The internal carotid artery (ICA) was dissected until its proximal bifurcation into the terminal ICA and pterygopalatine arteries were clearly defined. The pterygopalatine artery was clipped parallel to and flush with the terminal ICA. Another clip was applied to the common carotid artery (CCA). The distal aspect of the external carotid artery (ECA) was coagulated and a straight aneurysm clip was applied 4 mm distal to the proximal ICA bifurcation. A suture was passed through the arteriotomized ECA stump into the ICA until the tip was resting against the aneurysm clip. The suture was removed 30 min later, with body temperature maintained between 36.5-37.5° C. The ECA stump was coagulated with bipolar electrocautery. Clips were removed and the wound was irrigated with saline prior to suturing.
Rats were euthanised 24 hours post-infarction and their brains removed and sectioned coronally (2 mm). Sections were placed into a 2% solution of 2,3,5-triphyenyl-tetrazolium cholide (Sigma Chemical Co., St. Louis. Mo.) for 20 minutes at 37° C. The sections were removed to a petri dish and covered with 10% formaldehyde solution. The outline function of the NIH Image computer program (version 1.47) was used to estimate the infarcted and total brain areas for each section. Infarct size was calculated as percent of total brain area.

[5] = Table 4, read-out: Receptor Binding α7
[6] = read-out: alpha7 activation: response, normalized to 500 μM acetylcholine (maximum response)
[7] = read-out: alpha7 binding: % Inhibition of high affinity alphabungarotoxin binding (1 nM)

Sequence of alpha7 receptor (high affinity alpha-bungarotoxin binding, rat brain membranes) (Q05941 23-502): as above

**Q.** Which inhibition at 1 µM [1, 5] does the source give for COc1cc(O)ccc1/C=C/C=C1\CCCN=C1c1cccnc1 [GTS-86, trans-3-(4-hydroxy-2-methoxycinnamylidene) anabaseine dihydrochloride] here?
**A.** The inhibition at 1 µM was 90%.

**Q.** What does the source list for Oc1ccc(C=C2CCCN=C2c2cccnc2)cc1 [GTS-7, 3-(4-hydroxybenzylidene)anabaseine]?
**A.** Emax (rat alpha4beta2 receptor): 2%; Emax (rat alpha7 receptor [2]; [6]): 31%; inhibition at 1 µM [1, 5]: 69.3%; inhibition at 1 µM ([1]; concentration of 1 μM (Table 1), read-out: alpha7 binding: % Inhibition of high affinity alphabungarotoxin binding (1 nM)): 69%

**Q.** Which inhibition at 1 µM [1, 5] does the source give for COc1ccc(/C=C/C=C2\CCCN=C2c2cccnc2)c(OC)c1 [GTS-87, trans-3-(2,4-dimethoxycinnamylidene) anabaseine dihydrochloride] here?
**A.** Its inhibition at 1 µM is 76%.

**Q.** CCN1C[C@]2(COC(=O)c3ccccc3N3C(=O)C[C@H](C)C3=O)CC[C@H](OC)[C@@]34[C@@H]5C[C@H]6[C@H](OC)[C@@H]5[C@](O)(C[C@@H]6OC)[C@@](O)([C@@H](OC)[C@H]23)[C@@H]14 [methyllycaconitine] was tested. Which “antagonist effect on DMXB-induced neuroprotection (in words)” value (from here on “antagonist effect”) ([3]; against glutamate cytotoxicity) did it give?
**A.** The value was “sensitive”.

**Q.** For Nc1ccc(C=C2CCCN=C2c2cccnc2)cc1 [GTS-13, 3-(4-aminobenzylidene)anabaseine], which Emax (rat alpha4beta2 receptor) is on record?
**A.** Its Emax is 5%.

**Q.** What about the Emax (rat alpha7 receptor [2]; read-out: Oocytes Agonist α7) of the same compound?
**A.** Its Emax is 72%.

**Q.** And the Emax (rat alpha7 receptor [2]; [6])?
**A.** The Emax was 72%.

**Q.** And the “Oocytes Antagonist” value (rat alpha7 receptor [4])?
**A.** Its value is “.69”.

**Q.** What about the inhibition at 1 µM ([1]; read-out: Receptor Binding α7) of the same compound?
**A.** The inhibition at 1 µM was 93%.

**Q.** And the inhibition at 1 µM [1, 7]?
**A.** Its inhibition at 1 µM is 93%.

**Q.** Which results are given for CN(C)CCCOc1ccc(C=C2CCCN=C2c2cccnc2)cc1 [compound 15, 3(4-dimethylaminopropoxy-benzylidene)anabaseine]?
**A.** Emax (rat alpha7 receptor [2]; Table 4, read-out: Oocytes Agonist α7): 3%; Oocytes Antagonist (rat alpha7 receptor [4]; Table 4): .02; inhibition at 1 µM [1, 5]: 87%

**Q.** “NGF: nerve growth factor, 100 ng/ml (rat 2.5S NGF)” was tested. Which “Neurite Counts” value (PC12 cells) did it give?
**A.** Its value is 342 ± 56.

**Q.** How did the Emax (rat alpha4beta2 receptor) turn out when COc1cc(O)ccc1C=C1CCCN=C1c1cccnc1 [GTS-62, 3-(4-hydroxy-2-methoxybenzylidene)anabaseine] was run?
**A.** Its Emax is 4%.

**Q.** And the Emax (rat alpha7 receptor [2]; read-out: Oocytes Agonist α7)?
**A.** Its Emax is 43%.

**Q.** And the Emax (rat alpha7 receptor [2]; [6])?
**A.** The Emax was 41%.

**Q.** And the “Oocytes Antagonist” value (rat alpha7 receptor [4])?
**A.** The value was “.35”.

**Q.** And the inhibition at 1 µM ([1]; read-out: Receptor Binding α7)?
**A.** Its inhibition at 1 µM is 84%.

**Q.** And the inhibition at 1 µM [1, 7]?
**A.** Its inhibition at 1 µM is 84%.

**Q.** With α-bungarotoxin [reference compound] as the compound, how does the “antagonist effect” value [3] read?
**A.** Its value is “sensitive”.

**Q.** And the Kd ([1]; read-out: Kd, Scatchard analysis (r=0.98; single site model))?
**A.** Its Kd is 1.9 nM.

**Q.** For COc1ccc(C=C2CCCNC2c2cccnc2)c(OC)c1 (centres unmarked) [3(4-dimethoxy-benzylidene)anabasine], which inhibition at 1 µM [1, 5] is on record?
**A.** The inhibition at 1 µM was 9%.

**Q.** CNC1(C)C2CCC(C2)C1(C)C (centres unmarked) [mecamylamine, reference compound] was tested. Which “block of neuroprotective action of DMXB (in words)” value (rat) did it give?
**A.** Its value is “blocked this neuroprotective action of DMXB; also recorded: blocking action”.

**Q.** What about the “antagonist effect” value ([3]; against glutamate cytotoxicity) of the same compound?
**A.** Its value is “sensitive”.

**Q.** For C[C@]12N[C@H](Cc3ccccc31)c1ccccc12 [MK-801], which “protection against glutamate, concomitant (in words)” value ([3]; 10 μM, with 1 mM glutamate) is on record?
**A.** Its value is “blocking effect”.

**Q.** For CN1CCCC1c1cccnc1 (centres unmarked) [nicotine], which “protection by nicotine (in words)” value [3] is on record?
**A.** The value was “protected against neuronal loss”.

**Q.** COc1ccc(C(C)=C2CCCN=C2c2cccnc2)c(OC)c1 [GTS-80, 3-(2,4-dimethoxy-α-methyl-benzylidene)] was tested. Which inhibition at 1 µM [1, 5] did it give?
**A.** Its inhibition at 1 µM is 85%.

**Q.** C[N+](C)(C)CCCCCC[N+](C)(C)C [hexamethonium] was tested. Which “antagonist effect” value ([3]; against glutamate cytotoxicity) did it give?
**A.** The value was “sensitive”.

**Q.** What does the source list for COc1ccc(C=C2CCCN=C2c2cccnc2)c(O)c1 [GTS-51, 3-(2-hydroxy-4-methoxybenzylidene) anabaseine]?
**A.** Emax (rat alpha4beta2 receptor): 1%; Emax (rat alpha7 receptor [2]; read-out: Oocytes Agonist α7): 29%; Emax (rat alpha7 receptor [2]; [6]): 29%; Oocytes Antagonist (rat alpha7 receptor [4]): .26; inhibition at 1 µM [1, 7]: 45%

**Q.** “(7'-methyl-3-(2,4-dimethoxybenzylidene)) anabaseine [7'-methyl-DMXB]” was tested. Which “alpha4beta2 activation: response compared to maximal acetylcholine” value (rat alpha4beta2 receptor; xenopus oocytes) did it give?
**A.** The value was 0.02.

**Q.** And the “alpha7 activation: response, normalized to 500 μM acetylcholine (maximum response)” value (rat alpha7 receptor [2])?
**A.** Its value is 0.32.

**Q.** How did the Emax (rat alpha4beta2 receptor) turn out when COc1ccc(C=C2CCCN=C2c2cccnc2)cc1 [GTS-2, 3-(4-methoxybenzylidene)anabaseine] was run?
**A.** Its Emax is 5%.

**Q.** What about the Emax (rat alpha7 receptor [2]; [6]) of the same compound?
**A.** The Emax was 7%.
